Source: US20140088144A1, “INHIBITING MICROBIAL INFECTIONS” (THE UNIVERSITY OF KANSAS, priority 2012, published 2014)

Experiments:
icsB = assay: Shigella gene expression qRT-PCR, icsB; type: cell-based, S. flexneri; details: for Average ΔΔCt / Ct / RQ (2^−ΔΔCt) / ΔΔCt^1 (normalized to gapA) / ΔΔCt^2 (normalized to rrsA): icsB, example data
Procedure: Real-time quantitative reverse transcription PCR (qRT-PCR) was performed to test the effects of SE-1 on the expression of the VirF regulated genes virB, icsA, icsB and ipaB. The gapA and rrsA transcripts were used as internal controls. These are constitutively expressed Shigella genes commonly used to normalize mRNA levels. S. flexneri strain SME4331, which carries a null mutation in ipgD (ipgD), was grown at 30° C. overnight in TSB with ampicillin, diluted into the same medium to an OD600 of ˜0.1, and 1 ml aliquots further grown at 30° C. (DMSO only) or at 37° C. (SE-1 at 20 or 40 μM, or DMSO only, all 0.3% DMSO). Cells were grown to an OD600 of 1.0 (˜2.5 h) and RNA was isolated using an RNeasy MiniElute Cleanup Kit (Qiagen, Germantown, Md.), with DNA contamination eliminated using a Turbo DNase Kit (Ambion, Austin, Tex.). Complementary DNA (cDNA) was synthesized by random priming using a cDNA Reverse Transcription Kit (Applied Biosystems, Foster City, Calif.). Primers were tested for PCR specificity using genomic DNA template to ensure a single amplicon of the expected size for each primer pair, and validated using 5-fold dilutions of cDNA (2000 to 0.0256 ng) to ensure a linear plot of cycle threshold (Ct) versus cDNA concentration. Validated primer sets were used to test mRNA profiles in reactions that contained 10 ng of cDNA, 10 μl of SYBR green master mix (Applied Biosystems), specific primers (0.5 μM each) and water to a final volume of 20 μl, using a Step One Plus Real-Time PCR System (Applied Biosystems). The data was analyzed using the 2^−ΔΔCt method, and also by Applied Biosystems real-time analysis software. […] In brief, ΔΔCt values [ΔΔCt=(Ct,Target−Ct,Internal Control)SE-1−(Ct,Target−Ct,Internal Control)no SE-1] were separately obtained for each sample relative to two internal controls, gapA and rrsA. The ΔΔCt values relative to the two internal controls for each sample were averaged and then used to calculate the relative expression levels (2^−ΔΔCt). As a control, we also normalized each internal control to the other internal control. Control reactions used templates generated without reverse transcriptase to ensure low genomic DNA contamination. To ensure that products were not likely to be due to primer dimer artifacts, additional control samples were performed in which reaction mixtures contained primers alone (no template).

LacI = biological target: T1, LacI (Escherichia coli, UniProt P03023); assay: EMSA in vitro DNA binding by LacI; type: biochemical, E. coli; details: highest concentrations (dilutions starting at 650 μM)
T1 construct: made in house; host or cells: E. coli
Excerpt: All proteins for this study were expressed in E. coli. Untagged CRP was purified by Ni^2+-affinity chromatography as described. Lad protein was purified by ammonium sulfate precipitation and phosphocellulose column chromatography as described. RhaS-GB1^201b and GB1^b-RhaR were purified by Ni^2+-affinity chromatography. Briefly, plasmids derived from pET21 and expressing RhaS-GB1^201b and GB1^b-RhaR were transformed into competent cells of strains Acella™ (MoBiTec, Gottingen, Germany) or ArcticExpress(DE3) (Agilent Technologies, Santa Clara Calif.), respectively. The cells were grown in 1 liter TY plus ampicillin and rhamnose. Gentamycin was also added for GB1^b-RhaR. The cells were grown to OD600 of 0.5, transferred to a 15° C. shaker, 0.1 mM IPTG was added, and then incubated overnight. Cells were harvested by centrifugation and then resuspended in 30 mL of cold binding buffer (20 mM Tris, 500 mM NaCl, 5 mM imidazole, pH 7.9) plus L-rhamnose. […]
IRD700- and DY682-labeled oligos were from Eurofins MWG Operon. […] EMSA gels were imaged using an Odyssey infrared imager (LI-COR, Lincoln, Nebr.), and quantified using the Odyssey software, version 3.0.30. […] Inhibition values were calculated and graphs were drawn as for in vivo dose-response experiments.

T1 sequence (P03023 whole entry): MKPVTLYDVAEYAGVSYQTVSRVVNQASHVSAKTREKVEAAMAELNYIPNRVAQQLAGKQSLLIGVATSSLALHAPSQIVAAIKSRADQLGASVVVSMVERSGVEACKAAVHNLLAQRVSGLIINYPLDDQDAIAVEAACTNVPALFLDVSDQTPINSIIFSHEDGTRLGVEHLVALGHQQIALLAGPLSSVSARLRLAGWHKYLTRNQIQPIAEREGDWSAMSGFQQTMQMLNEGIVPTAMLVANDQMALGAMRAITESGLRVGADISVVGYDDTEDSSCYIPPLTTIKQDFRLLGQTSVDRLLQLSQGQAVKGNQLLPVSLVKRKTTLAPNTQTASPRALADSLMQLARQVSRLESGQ

SMILES: CCCCN1C=C(c2ccc3ccccc3n2)C(C[N+](=O)[O-])c2ccccc21 (stereo not drawn) [Compound 1, 1-butyl-4-(nitromethyl)-3-quinolin-2-yl-4H-quinoline]
- reduction of icsB expression (icsB; 40 μM SE-1, P<0.05): two-fold reduction
- Average ΔΔCt (icsB; SE-1 20 μM): −0.06
- Ct (icsB; SE-1 20 μM): 26.25
- RQ (2^−ΔΔCt) (icsB; SE-1 20 μM): 1.04
- ΔΔCt^1 (normalized to gapA) (icsB; SE-1 20 μM): −0.56
- ΔΔCt^2 (normalized to rrsA) (icsB; SE-1 20 μM): 0.44
- Average ΔΔCt (icsB; SE-1 40 μM): 1.14
- Ct (icsB; SE-1 40 μM): 27.04
- RQ (2^−ΔΔCt) (icsB; SE-1 40 μM): 0.45
- ΔΔCt^1 (normalized to gapA) (icsB; SE-1 40 μM): 0.80
- ΔΔCt^2 (normalized to rrsA) (icsB; SE-1 40 μM): 1.49
- LacI DNA binding retained (LacI): approximately 70%
